Values quoted from earlier work, collected in patent US20030036565A1, “Cancer chemopreventive agents” (WISCONSIN ALUMNI RESEARCH FOUNDATION, priority 2001, published 2003).

system: phase II enzyme synthesis; details: cultured murine hepatoma cells; Wilkinson and Clapper, 1997

| induction of phase II enzyme synthesis | SMILES |
| --- | --- |
| induce phase II enzyme synthesis | O=c1cc(-c2ccccc2)oc2ccc3ccccc3c12 [β-naphthoflavone] |
| induce phase II enzyme synthesis | Cc1cc(C(C)(C)C)c(O)c(C(C)(C)C)c1 [BHT, butylated hydroxytoluene] |
| induce phase II enzyme synthesis | CC(C)(C)c1cc(O)ccc1O [TBHQ, tert-butylhydroquinone] |

| SMILES | induction of phase II enzyme synthesis |
| --- | --- |
| COc1ccc(O)c(C(C)(C)C)c1 [BHA, butylated hydroxyanisole] | induce phase II enzyme synthesis |
